Laboratory results as given in article PMC3390344, “Antibacterial Activity and Mechanism of a Scorpion Venom Peptide Derivative In Vitro and In Vivo” (PLoS ONE, 2012).
Ends that are not written are not given here.

Test system: S. aureus AB94004
Assay: Bactericidal assay (time-killing)
Assay type: cell-based
Conditions: samples at 0, 5, 15, 30, 60 min, colony counts, average of three dishes
Procedure: Figure 5 Bactericidal assays of the Kn2-7 and BmKn2 peptides against S. aureus and E. coli AB94012. Set point indicates untreated bacteria, and 0 minutes was defined as the time of the first sample collection, which was immediately after mixing bacteria and Kn2-7 or BmKn2. The other samples were collected at 5 min, 15 min, 30 min or 60 min. All of the counts were the average of three dishes, and the experiment was repeated at least three times. (A) Time-killing curve of Kn2-7 against S. aureus AB94004. (B) Time-killing curve of BmKn2 against S. aureus AB94004. (C) Time-killing curve of Kn2-7 against E. coli AB94012.
Bactericidal curves for Kn2-7 and BmKn2 were determined against S. aureus AB94004 and E. coli AB94012. A 400 µl aliquot of the peptide solution was added to 1,600 µl of a bacterial suspension. At each time point, 200 µl of the treated bacterial suspension was transferred to a sterilized 1.5-ml tube. After centrifugation at 1,000×g for 5 min, the supernatant was removed, and the pellet was resuspended in 200 µl of LB medium. The bacterial suspensions were placed on agar plates and incubated at 37°C until viable colonies could be counted.

**Q.** For FIKRIARLLRKIF [Kn2-7], which “Bactericidal effect (time-killing curve)” value is on record?
**A.** The value was “bactericidal effects”.
